Assay results from patent US20230043863A1, “HETEROAROMATIC DERIVATIVES FOR USE AS REGULATOR, PREPARATION METHOD THEREFOR AND USE THEREOF” (JIANGSU HANSOH PHARMACEUTICAL GROUP CO., LTD., priority 2018, published 2023).

Tests used:
[1] = molecular target: T1, JAK3 (Homo sapiens, UniProt P52333); assay: JAK kinase activity inhibition, TR-FRET (JAK3); assay type: biochemical; settings: TR-FRET kinase assay
T1 sequence (P52333 1-1124): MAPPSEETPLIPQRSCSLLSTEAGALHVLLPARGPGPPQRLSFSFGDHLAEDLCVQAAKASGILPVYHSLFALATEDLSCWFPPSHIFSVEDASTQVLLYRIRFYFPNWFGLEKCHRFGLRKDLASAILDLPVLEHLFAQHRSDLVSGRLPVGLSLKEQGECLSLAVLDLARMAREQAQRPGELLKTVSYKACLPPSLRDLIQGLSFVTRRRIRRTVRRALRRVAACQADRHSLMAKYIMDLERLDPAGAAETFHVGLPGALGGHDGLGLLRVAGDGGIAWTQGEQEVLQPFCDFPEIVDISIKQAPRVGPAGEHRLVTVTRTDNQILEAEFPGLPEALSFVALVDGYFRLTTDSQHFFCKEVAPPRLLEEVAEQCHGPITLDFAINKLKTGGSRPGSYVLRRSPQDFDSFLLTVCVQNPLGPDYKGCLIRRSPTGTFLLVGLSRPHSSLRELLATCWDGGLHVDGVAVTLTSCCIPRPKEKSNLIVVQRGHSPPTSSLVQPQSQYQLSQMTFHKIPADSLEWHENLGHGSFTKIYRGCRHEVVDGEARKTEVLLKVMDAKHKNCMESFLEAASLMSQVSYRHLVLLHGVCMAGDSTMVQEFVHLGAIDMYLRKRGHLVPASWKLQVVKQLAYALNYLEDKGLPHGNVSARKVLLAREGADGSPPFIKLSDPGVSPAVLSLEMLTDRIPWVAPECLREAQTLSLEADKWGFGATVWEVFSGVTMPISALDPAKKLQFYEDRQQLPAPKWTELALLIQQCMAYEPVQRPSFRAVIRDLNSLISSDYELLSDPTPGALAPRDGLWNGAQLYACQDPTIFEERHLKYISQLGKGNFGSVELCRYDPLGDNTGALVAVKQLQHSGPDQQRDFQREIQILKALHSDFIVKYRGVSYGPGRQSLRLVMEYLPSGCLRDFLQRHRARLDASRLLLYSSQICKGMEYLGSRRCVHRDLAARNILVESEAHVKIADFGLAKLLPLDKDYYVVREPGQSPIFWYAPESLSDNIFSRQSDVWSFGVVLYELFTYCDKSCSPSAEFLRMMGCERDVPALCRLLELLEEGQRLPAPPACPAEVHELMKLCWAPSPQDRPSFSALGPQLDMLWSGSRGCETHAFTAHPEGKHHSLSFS
Procedure: (§1) Experimental objective: The objective of this test is to test the inhibitory effect of the compound on JAK kinase activity.
(§2) Experimental method: the fluorescence resonance energy transfer (TR-FRET) method was used to test the inhibitory effect of the compound on JAK kinase activity, and the half inhibitory concentration IC50 of the compound on JAK kinase activity was obtained.
(§3) Kinase reaction was carried out in a white 384-well plate (PerkinElmer). 1-5 μL of different concentrations of the compound diluted with DMSO and ddH2O was added into each well, and 1-5 μL of the corresponding solvent was added to the positive control wells, followed by addition of 0.1-20 nM JAK kinase solution diluted with 1-5 μL of kinase buffer (HEPES 50-250 mM, MgCl2 5-20 mM, etc.) was added to each well. 1-5 μL of kinase buffer was added to the negative control well. 1-5 μL of substrate mixture containing peptide substrate and ATP was added. The plate was incubated at room temperature for 0.5-5 hours. […], EDTA and detection solution containing labeled antibody was added, and then the plate was incubated at room temperature for another 1-24 hours. The fluorescence signal value at about 620 nm and 665 nm of each well was measured by BioTek Synergy H1 plate reader, and the inhibition rate was calculated by the fluorescence signal value. According to the inhibition rate of different concentrations, the IC50 of the compound was obtained by curve fitting.
(§4) The percentage inhibition data of the wells treated with the compound was calculated with the positive control wells (DMSO control wells) and negative control wells (no kinase added) on the plate {% inhibition rate=100-[(test compound value-negative control value)]/(Positive control value-negative control value)×100}. IC50 value was calculated by using GraphPad prism to fit the data of different concentrations and corresponding percentage inhibition rates to a 4-parameter non-linear logic formula.

[2] = molecular target: JAK2 (Homo sapiens, UniProt O60674); assay: JAK kinase activity inhibition, TR-FRET (JAK2); assay type: biochemical; settings: TR-FRET kinase assay
Chain of JAK2 (O60674 whole entry): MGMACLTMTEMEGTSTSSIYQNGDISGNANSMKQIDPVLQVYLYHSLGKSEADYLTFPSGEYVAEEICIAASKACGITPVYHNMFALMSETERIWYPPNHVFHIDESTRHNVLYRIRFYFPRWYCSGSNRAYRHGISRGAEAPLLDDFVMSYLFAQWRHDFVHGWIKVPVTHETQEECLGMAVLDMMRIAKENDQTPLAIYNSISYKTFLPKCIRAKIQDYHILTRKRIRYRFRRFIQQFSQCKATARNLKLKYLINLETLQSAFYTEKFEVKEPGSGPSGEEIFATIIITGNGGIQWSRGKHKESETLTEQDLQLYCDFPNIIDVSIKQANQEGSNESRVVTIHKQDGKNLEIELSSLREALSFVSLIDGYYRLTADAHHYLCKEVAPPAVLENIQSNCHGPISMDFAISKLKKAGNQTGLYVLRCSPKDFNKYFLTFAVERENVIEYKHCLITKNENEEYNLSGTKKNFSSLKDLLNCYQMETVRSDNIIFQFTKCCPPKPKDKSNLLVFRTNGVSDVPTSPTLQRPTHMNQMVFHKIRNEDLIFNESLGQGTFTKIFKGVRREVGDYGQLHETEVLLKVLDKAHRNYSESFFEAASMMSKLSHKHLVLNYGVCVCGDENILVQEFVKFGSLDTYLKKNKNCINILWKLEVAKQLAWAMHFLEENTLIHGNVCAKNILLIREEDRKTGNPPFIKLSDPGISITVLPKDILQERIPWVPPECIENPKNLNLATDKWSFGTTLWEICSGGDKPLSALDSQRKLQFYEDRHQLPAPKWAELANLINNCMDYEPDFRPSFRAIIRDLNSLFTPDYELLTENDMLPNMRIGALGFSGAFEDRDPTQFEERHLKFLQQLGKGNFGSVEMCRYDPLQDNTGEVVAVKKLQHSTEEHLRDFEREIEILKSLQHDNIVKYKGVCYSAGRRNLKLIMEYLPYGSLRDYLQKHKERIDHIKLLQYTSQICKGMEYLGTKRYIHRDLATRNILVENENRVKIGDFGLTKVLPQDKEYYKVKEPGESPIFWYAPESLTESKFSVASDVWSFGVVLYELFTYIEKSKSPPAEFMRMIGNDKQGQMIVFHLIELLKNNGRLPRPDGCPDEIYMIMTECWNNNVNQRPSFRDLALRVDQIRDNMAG
Procedure: as §1, §2, §3, §4

[3] = system: JAK-STAT signal pathway of U266 cells; assay: Inhibition of cellular JAK-STAT signal pathway (STAT3 phosphorylation) in U266 cells; assay type: cell-based, human; settings: Homo sapiens, U-266, INF-a 1000 U/mL stimulation
Summary of the method: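 U266 cells (100-300 K/well) preincubated 2 h at room temperature with serially diluted compound, then stimulated 15 min with IFN-α at 1000 U/mL final. After lysis, STAT3 phosphorylation read by LANCE Ultra TR-FRET (Eu antibody 0.5 nM, ULight antibody 5 nM, overnight) at 665 nm; IC50 from 4-parameter fit of inhibition versus DMSO and negative controls.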

[4] = molecular target: TYK2 (Homo sapiens, UniProt P29597); assay: JAK kinase activity inhibition, TR-FRET (TYK2); assay type: biochemical; settings: TR-FRET kinase assay
Chain of TYK2 (P29597 whole entry): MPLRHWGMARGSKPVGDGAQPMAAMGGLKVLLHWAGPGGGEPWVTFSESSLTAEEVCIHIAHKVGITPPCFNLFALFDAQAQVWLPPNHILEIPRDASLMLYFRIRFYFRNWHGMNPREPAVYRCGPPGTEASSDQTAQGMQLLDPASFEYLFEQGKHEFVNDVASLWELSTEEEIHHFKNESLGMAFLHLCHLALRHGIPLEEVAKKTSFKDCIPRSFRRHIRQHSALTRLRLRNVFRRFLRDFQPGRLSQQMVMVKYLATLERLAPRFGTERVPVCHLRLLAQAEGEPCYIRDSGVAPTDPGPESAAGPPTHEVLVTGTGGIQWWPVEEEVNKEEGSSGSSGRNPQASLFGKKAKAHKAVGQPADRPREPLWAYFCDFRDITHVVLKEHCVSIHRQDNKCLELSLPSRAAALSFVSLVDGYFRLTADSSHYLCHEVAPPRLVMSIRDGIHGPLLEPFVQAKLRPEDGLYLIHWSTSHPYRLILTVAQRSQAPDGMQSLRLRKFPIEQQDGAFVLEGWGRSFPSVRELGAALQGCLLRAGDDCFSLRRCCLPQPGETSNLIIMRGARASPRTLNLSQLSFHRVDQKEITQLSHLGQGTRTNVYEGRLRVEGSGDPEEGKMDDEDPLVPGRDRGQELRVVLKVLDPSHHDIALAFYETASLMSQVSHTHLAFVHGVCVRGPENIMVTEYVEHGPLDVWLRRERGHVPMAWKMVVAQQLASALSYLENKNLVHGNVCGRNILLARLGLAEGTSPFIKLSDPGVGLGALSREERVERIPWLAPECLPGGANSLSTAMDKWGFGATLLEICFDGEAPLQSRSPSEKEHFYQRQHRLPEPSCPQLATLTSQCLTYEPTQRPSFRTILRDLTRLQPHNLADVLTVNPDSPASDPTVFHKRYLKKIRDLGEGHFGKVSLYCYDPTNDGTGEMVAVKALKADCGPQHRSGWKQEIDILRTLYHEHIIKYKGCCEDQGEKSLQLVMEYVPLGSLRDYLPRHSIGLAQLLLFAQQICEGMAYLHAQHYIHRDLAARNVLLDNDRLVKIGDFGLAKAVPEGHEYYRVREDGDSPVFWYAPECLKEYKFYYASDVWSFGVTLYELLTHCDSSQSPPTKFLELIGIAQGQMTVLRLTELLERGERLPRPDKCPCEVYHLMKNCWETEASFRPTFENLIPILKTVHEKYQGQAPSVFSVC
Summary of the method: (§5)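 TR-FRET read (≈620 and 665 nm) after EDTA quench and 1-24 h antibody detection at RT. Kinase 0.1-20 nM, peptide substrate + ATP, 0.5-5 h RT reaction in HEPES 50-250 mM, MgCl2 5-20 mM. IC50 from 4-parameter fit vs DMSO and no-kinase controls.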

[5] = molecular target: JAK1 (Homo sapiens, UniProt P23458); assay: JAK kinase activity inhibition, TR-FRET (JAK1); assay type: biochemical; settings: TR-FRET kinase assay
Chain of JAK1 (P23458 whole entry): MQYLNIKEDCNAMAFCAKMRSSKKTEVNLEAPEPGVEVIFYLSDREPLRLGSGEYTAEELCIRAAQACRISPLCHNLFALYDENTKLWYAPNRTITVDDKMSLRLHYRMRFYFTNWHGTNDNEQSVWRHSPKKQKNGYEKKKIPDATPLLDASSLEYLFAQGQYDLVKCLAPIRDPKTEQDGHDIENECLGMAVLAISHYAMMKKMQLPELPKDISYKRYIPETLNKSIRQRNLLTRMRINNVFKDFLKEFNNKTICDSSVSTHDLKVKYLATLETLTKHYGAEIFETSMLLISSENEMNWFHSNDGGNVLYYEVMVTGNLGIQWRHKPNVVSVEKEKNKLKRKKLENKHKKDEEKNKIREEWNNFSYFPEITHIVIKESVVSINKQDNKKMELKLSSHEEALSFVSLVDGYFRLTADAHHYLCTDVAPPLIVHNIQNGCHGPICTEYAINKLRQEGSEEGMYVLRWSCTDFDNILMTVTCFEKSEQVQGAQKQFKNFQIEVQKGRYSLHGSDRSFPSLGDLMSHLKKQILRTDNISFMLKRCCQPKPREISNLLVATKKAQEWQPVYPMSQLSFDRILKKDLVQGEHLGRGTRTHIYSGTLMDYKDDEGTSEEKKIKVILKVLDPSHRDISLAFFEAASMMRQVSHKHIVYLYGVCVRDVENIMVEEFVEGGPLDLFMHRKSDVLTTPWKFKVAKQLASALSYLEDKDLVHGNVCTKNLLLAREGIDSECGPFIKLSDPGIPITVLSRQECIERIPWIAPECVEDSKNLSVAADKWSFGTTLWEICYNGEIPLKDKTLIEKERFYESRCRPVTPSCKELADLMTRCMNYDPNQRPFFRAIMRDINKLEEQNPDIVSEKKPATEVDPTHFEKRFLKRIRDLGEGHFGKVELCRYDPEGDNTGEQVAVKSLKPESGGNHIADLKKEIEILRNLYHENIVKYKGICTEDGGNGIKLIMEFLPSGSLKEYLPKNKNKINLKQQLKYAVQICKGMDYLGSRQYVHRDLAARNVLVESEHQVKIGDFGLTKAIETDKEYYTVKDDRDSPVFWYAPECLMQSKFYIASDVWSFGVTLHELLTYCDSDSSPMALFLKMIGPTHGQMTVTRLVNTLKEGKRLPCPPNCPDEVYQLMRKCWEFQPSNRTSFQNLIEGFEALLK
Summary of the method: as §5

SMILES | IC50 [1] [nM] | IC50 [2] [nM] | IC50 [3] [nM] | IC50 [4] [nM] | IC50 [5] [nM]
Cc1cc(Nc2nc(N[C@@H]3C[C@H]4CC[C@@H](C3)N4CCC#N)nc3ccccc23)n[nH]1 [Embodiment 4, 3-((3-exo)-3-((4-((5-methyl-1H-pyrazol-3-yl)amino)quinazolin-2-yl)amino)-8-azabicyclo[3.2.1]oct-8-yl)propionitrile] | 5.72 | 0.55 | 2.6 | 0.68 | 0.86
Cc1cc(Nc2nc(N[C@@H]3C[C@H]4CC[C@@H](C3)N4C(=O)CN(C)C)nc3sccc23)n[nH]1 [Embodiment 243, 2-(dimethylamine)-1-((3-exo)-3-((4-((5-methyl-1H-pyrazol-3-yl)amino)thieno[2,3-d]pyrimidin-2-yl)amino)-8-azabicyclo[3.2.1]oct-8-yl)ethane-1-one] | 148 | 2.42 | 0.24 | 1.48 | 0.53
Cc1cc(Nc2nc(N[C@@H]3C[C@H]4CC[C@@H](C3)N4CCC#N)nc3[nH]ccc23)n[nH]1 [Embodiment 3, 3-((3-exo)-3-((4-((5-methyl-1H-pyrazol-3-yl)amino)-7H-pyrrolo[2,3-d]pyrimidin-2-yl)amino)-8-azabicyclo[3.2.1]oct-8-yl)propionitrile] | 0.81 | 0.29 | 4.5 | 0.17 | 0.11
Cc1cc(Nc2nc(N[C@@H]3C[C@H]4CCC[C@@H](C3)N4S(=O)(=O)N3CC(C#N)C3)nc3ccccc23)n[nH]1 [Embodiment 217] | 1.92 | 1.61 | 36.7 | 0.1 | 0.04
COc1ccc2c(Nc3cc(C)[nH]n3)nc(N[C@@H]3C[C@H]4CCC[C@@H](C3)N4S(=O)(=O)N3CC(C#N)C3)nc2c1 [Embodiment 219, 1-(((3-exo)-3-((7-methoxyl-4-((5-methyl-1H-pyrazol-3-yl)amino)quinazolin-2-yl)amino)-9-azabicyclo[3.3.1]non-9-yl)sulfonyl)azetindin-3-formonitrile] | 2.61 | 0.76 | 117 | 0.13 | 0.09
Cc1cc(Nc2nc(N(C)[C@@H]3C[C@H]4CC[C@@H](C3)N4S(=O)(=O)N3CC(C#N)C3)nc3sccc23)n[nH]1 [Embodiment 241, 1-(((3-exo)-3-(methyl(4-((5-methyl-1H-pyrazol-3-yl)amino)thieno[2,3-d]pyrimidin-2-yl)amino)-8-azabicyclo[3.2.1]oct-8-yl)sulfonyl)azetindin-3-formonitrile] | 7.35 | 1.39 | 115 | 0.22 | 0.15
N#CCCN1[C@@H]2CC[C@H]1C[C@H](Nc1nc(Nc3cc(CO)[nH]n3)c3ccsc3n1)C2 [Embodiment 273] | > 200 | 2.96 | 41.9 | 2.19 | 1.28
COc1ccc2c(Nc3cc(C)[nH]n3)nc(N(C)[C@@H]3C[C@H]4CC[C@@H](C3)N4S(=O)(=O)N3CC(C#N)C3)nc2c1 [Embodiment 218, 1-(((3-exo)-3-((7-methoxyl-4-((5-methyl-1H-pyrazol-3-yl)amino)quinazolin-2-yl)(methyl)amino)-8-azabicyclo[3.2.1]oct-8-yl)sulfonyl)azetindin-3-formonitrile] | 19.6 | 1.05 | 61.5 | 0.4 | 0.27
Cc1cc(Nc2nc(N(C)[C@@H]3C[C@H]4CCC[C@@H](C3)N4S(=O)(=O)N3CC(C#N)C3)nc3sccc23)n[nH]1 [Embodiment 239, 1-(((3-exo)-3-(methyl(4-((5-methyl-1H-pyrazol-3-yl)amino)thieno[2,3-d]pyrimidin-2-yl)amino)-9-azabicyclo[3.3.1]non-9-yl)sulfonyl)azacyclobutane-3-nitrile] | 3.11 | 1.25 | 39 | 0.22 | 0.13
Cc1cc(Nc2nc(N[C@@H]3C[C@H]4CC[C@@H](C3)N4S(=O)(=O)c3cccnc3)nc3sccc23)n[nH]1 [Embodiment 265, N^4-(5-methyl-1H-pyrazol-3-yl)-N^2-((3-exo)-8(pyridin-3ylsulfonyl)-8-azabicyclo[3.2.1]oct-3-yl)thieno[2,3-d]pyrimidin-2,4-diamine] | 170 | 1.81 | 20.4 | 1 | 1.29
Cc1cc(Nc2nc(N[C@@H]3C[C@H]4CC[C@@H](C3)N4CCC#N)nc3cc[nH]c23)n[nH]1 [Embodiment 40, 3-((3-exo)-3-((4-((5-methyl-1H-pyrazol-3-yl)amino)-5H-pyrrolo[3,2-d]pyrimidin-2-yl)amino)-8-azabicyclo[3.2.1]oct-8-yl)pronionitrile] | 8.78 | 0.77 | 17.4 | 1.01 | 0.83
CN(c1nc(Nc2cc(CO)[nH]n2)c2ccsc2n1)[C@@H]1C[C@H]2CCC[C@@H](C1)N2S(=O)(=O)N1CC(C#N)C1 [Embodiment 132, 1-(((3-exo)-3-((4-((5-(hydroxymethyl)-1H-pyrazol-3-yl)amino)thieno[2,3-d]pyrimidin-2-yl)(methyl)amino)-9-azabicyclo[3.3.1]non-9-yl)sulfonyl)azetindin-3-formonitrile] | 3.43 | 0.77 | 23.8 | 0.42 | 0.1
Cc1cc(Nc2cc3ncccc3c(N3CC4CCC(C3)N4CCC#N)n2)n[nH]1 [Embodiment 109, 3-(3-(7-((5-methyl-1H-pyrazol-3-yl)amino)-1,6-diazanaphthalen-5-yl)-3,8-diazabicyclo[3.2.1]oct-8-yl)propionitrile] | 25.9 | 6.27 | – | 33.9 | 7.85
N#CCCN1[C@@H]2CC[C@H]1C[C@H](Nc1nc(Nc3cnccn3)cc3ncccc13)C2 [Embodiment 29, 3-((3-exo)-3-((7-(pyrazin-2-ylamino)-1,6-diazanaphthalen-5-yl)amino)-8-azabicyclo[3.2.1]oct-8-yl)propionitrile] | > 100 | > 100 | – | 47.3 | 44.2
Cc1cc(Nc2nc(N[C@@H]3C[C@H]4CC[C@@H](C3)N4CCC#N)nc3cc(-c4cnn(C)c4)ccc23)n[nH]1 [Embodiment 186, 3-((3-exo)-3-((4-((5-methyl-1H-pyrazol-3-yl)amino)-7-(1-methyl-1H-pyrazol-4-yl)quinazolin-2-yl)amino)-8-azabicyclo[3.2.1]oct-8-yl)propionitrile] | 14.7 | 0.73 | – | 0.2 | 0.12
